# System: not listed separately
# Test: Cmax in rats
# Assay type: ADME, organism-based
# Conditions: rat, in vivo
row,Cmax [ng/mL],SMILES
1,168,C/C(=C(\F)C(=O)Nc1ccc(-c2ccccc2S(N)(=O)=O)cc1Br)c1cccc(C(=N)N)c1
2,630,C/C(=C(\F)C(=O)Nc1ccc(-c2ccccc2S(N)(=O)=O)cc1Br)c1cccc(C(=N)NO)c1

# Molecular target: Coagulation factor X (Homo sapiens, UniProt P00742)
# Test: Inhibitory concentration to coagulation factor X
# Conditions: not given
# Sequence of Coagulation factor X (P00742 41-179 limits assumed): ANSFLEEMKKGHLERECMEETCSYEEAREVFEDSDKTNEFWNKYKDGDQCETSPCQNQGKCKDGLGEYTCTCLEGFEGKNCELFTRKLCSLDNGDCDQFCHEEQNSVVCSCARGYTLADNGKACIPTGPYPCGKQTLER
# Sequence of Coagulation factor X (P00742 235-488 limits assumed): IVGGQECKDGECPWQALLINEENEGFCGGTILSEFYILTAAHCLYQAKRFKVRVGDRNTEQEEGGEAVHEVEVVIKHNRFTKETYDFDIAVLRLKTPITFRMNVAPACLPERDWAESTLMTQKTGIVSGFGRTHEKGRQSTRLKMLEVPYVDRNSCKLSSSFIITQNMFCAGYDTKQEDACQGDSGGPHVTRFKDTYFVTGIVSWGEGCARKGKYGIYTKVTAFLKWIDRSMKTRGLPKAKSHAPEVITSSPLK
row,IC50 [nM],SMILES
1,750,C/C(=C(\F)C(=O)Nc1ccc(-c2ccccc2S(N)(=O)=O)cc1)c1cccc(C(=N)NNc2ccccc2)c1
2,28,CNNC(=N)c1cccc(/C(C)=C(/F)C(=O)Nc2ccc(-c3ccccc3S(N)(=O)=O)cc2)c1
3,5910,C/C(=C(\F)C(=O)Nc1ccc(-c2ccccc2S(N)(=O)=O)cc1)c1ccc2[nH]nc(N)c2c1
4,48,CNNC(=N)c1cccc(/C(C)=C2/CC(=O)N(c3ccc(-c4ccccc4S(N)(=O)=O)cc3)C2=O)c1
5,1590,C/C(=C(\F)C(=O)Nc1ccc(-c2ccccc2S(N)(=O)=O)cc1F)c1cccc(C(=N)NO)c1
6,420,C/C(=C(\F)C(=O)Nc1ccc(-c2ccccc2S(N)(=O)=O)cc1)c1cccc(C(=N)NNCC(F)(F)F)c1
7,41,C/C(=C(\F)C(=O)Nc1ccc(-c2ccccc2S(N)(=O)=O)cc1Cl)c1cccc(C(=N)NN)c1
8,890,C/C(=C(\F)C(=O)Nc1ccc(-c2ccccc2S(N)(=O)=O)cc1)c1cccc(C(=N)N2CCC2)c1
9,110,C/C(=C(\F)C(=O)Nc1ccc(-c2ccccc2S(N)(=O)=O)cc1F)c1cccc(C(=N)NN)c1
10,710,C/C(=C1\CC(=O)N(c2ccc(-c3ccccc3S(N)(=O)=O)cc2)C1=O)c1cccc(C(=N)NO)c1
11,1,N=C(N)c1cccc(/C(=C(/F)C(=O)Nc2ccc(-c3ccccc3S(N)(=O)=O)cc2)n2cccn2)c1
12,750,C/C(=C(\F)C(=O)Nc1ccc(-c2ccccc2S(N)(=O)=O)cc1Cl)c1cccc(C(=N)NO)c1
13,57,C/C(=C(\F)C(=O)Nc1ccc(-c2ccccc2S(N)(=O)=O)cc1Br)c1cccc(C(=N)NN)c1
14,180,C/C(=C1\CC(=O)N(c2ccc(C(=O)N3CCCC3)cc2)C1=O)c1cccc(C(=N)N)c1
15,440,C/C(=C(\F)C(=O)Nc1ccc(-c2ccccc2S(N)(=O)=O)cc1)c1cccc(C(=N)NO)c1
16,890,C/N=C(\N)c1cccc(/C(C)=C(/F)C(=O)Nc2ccc(-c3ccccc3S(N)(=O)=O)cc2)c1
17,490,C/C(=C(\F)C(=O)Nc1ccc(-c2ccccc2S(N)(=O)=O)cc1)c1cccc(C(=N)NN(C)C)c1
18,120,CC(c1cccc(C(=N)N)c1)C1CC(=O)N(c2ccc(-c3ccccc3S(N)(=O)=O)cc2)C1=O (stereo unspecified)
19,29,C/C(=C1\CC(=O)N(c2ccc(C(C)(C)C)cc2)C1=O)c1cccc(C(=N)N)c1
20,3790,N=C(NO)c1cccc(/C(=C(/F)C(=O)Nc2ccc(-c3ccccc3S(N)(=O)=O)cc2)n2cccn2)c1
21,78,C/C(=C1\CC(=O)N(c2ccc(-c3ccccc3S(N)(=O)=O)cc2)C1=O)c1cccc(C(=N)NN)c1
22,253,C/C(=C(\F)C(=O)Nc1ccc(-c2ccccc2S(N)(=O)=O)cc1)c1cccc(C(=N)NC#N)c1
23,1180,C/C(=C(\F)C(=O)Nc1ccc(-c2ccccc2S(N)(=O)=O)cc1Br)c1cccc(C(=N)NO)c1

# System: not listed separately
# Test: Oral bioavailability in dog
# Assay type: ADME, organism-based, Canis lupus familiaris
# Conditions: in vivo
row,bioavailability [%],SMILES
1,< 5,N=C(N)c1cccc(/C(=C(/F)C(=O)Nc2ccc(-c3ccccc3S(N)(=O)=O)cc2)n2cccn2)c1
2,25,N=C(NO)c1cccc(/C(=C(/F)C(=O)Nc2ccc(-c3ccccc3S(N)(=O)=O)cc2)n2cccn2)c1

# Molecular target: Prothrombin (Homo sapiens, UniProt P00734)
# Test: Inhibitory concentration required against Thrombin
# Conditions: not given
row,IC50 [nM],SMILES
1,10700,C/C(=C1\CC(=O)N(c2ccc(C(=O)N3CCCC3)cc2)C1=O)c1cccc(C(=N)N)c1
2,1600,C/C(=C(\CC(N)=O)C(=O)Nc1ccc(-c2ccccc2S(N)(=O)=O)cc1)c1cccc(C(=N)N)c1
3,670,C/C(=C1\CC(=O)N(c2ccc(-c3ccccc3S(N)(=O)=O)cc2)C1=O)c1cccc(C(=N)N)c1
4,76,C/C(=C1\CC(=O)N(c2ccc(C(C)(C)C)cc2)C1=O)c1cccc(C(=N)N)c1

# Reference: ChEMBL document CHEMBL1136273, “Design and synthesis of factor Xa inhibitors and their prodrugs” (Bioorg Med Chem Lett, 2003)
